ChEMBL document CHEMBL1141794, “Alkamides from the leaves of Zanthoxylum syncarpum” (J Nat Prod, 2005)
pIC50: −log10 of the molar value. Active and inactive are the calls of the source. No cut-off for these calls is given here.

Tests used:
Plasmodium falciparum [1] = settings: W2
Description: (§1) Antiplasmodial activity against chloroquine-resistant Plasmodium falciparum W2 after 48 hrs

Plasmodium falciparum [2] = settings: D6
Description: (§2) Antiplasmodial activity against chloroquine-sensitive Plasmodium falciparum D6 after 48 hrs

Plasmodium falciparum [3] = test: microbe, parasite or virus in culture; settings: D6, 48 h
Description: as §2

Plasmodium falciparum [4] = test: microbe, parasite or virus in culture; settings: W2, 48 h
Description: as §1

| SMILES | Activity (Plasmodium falciparum [1]) | Activity (Plasmodium falciparum [2]) | pIC50 (Plasmodium falciparum [3]) | pIC50 (Plasmodium falciparum [4]) |
| --- | --- | --- | --- | --- |
| COc1ccc(C(O)CNC(=O)/C=C/c2ccccc2)cc1OC (stereo not drawn) | inactive | inactive |  |  |
| C[C@@H]1CC[C@H]2[C@@H](C)C(=O)O[C@@H]3O[C@@]4(C)CC[C@@H]1[C@]32OO4 [ARTEMISININ] |  |  | 7.40 | 7.52 |
| COc1ccc([C@H](CNC(=O)/C=C/c2ccccc2)C(=O)/C=C/c2ccccc2)cc1OC |  |  | 5.38 | 5.21 |
| COc1ccc(C(CNC(=O)/C=C/c2ccccc2)OC(C)=O)cc1OC (stereo not drawn) | inactive | inactive |  |  |
